Measured values taken from US12295397B2, “Dietary peptides” (Diet4Life APS, priority 2015, dated 2025).
No end group written: not given here.

Columns and labels:
pepsin = pepsin (Homo sapiens, UniProt P0DJD8); assay: Pepsin digestion of meat, resistance of peptide to pepsin degradation; format: in vitro ADME; conditions: present in proteolytic digests
Description: Minced meat is diluted 1-10 times with distilled water, adjusted to pH 1-3 with hydrochloric acid, and incubated with 0.01-10% pepsin (w/w) at 4-40° C. for ½-12 h with adequate mixing. Insoluble material is removed by centrifugation at 100-1000×g for 3-30 min, and supernatant is neutralized with NaOH. Using sterile conditions, low molecular weight peptides in supernatant are recovered by tangential ultrafiltration at 4-40° C. for ½-12 h, and excess water is evaporated at 25-50° C. for up to 12 h. The concentrated dialysate is tested for bioactivity with cells and used for further purification by HPLC.

[1] = Stability of peptides in Fetal Bovine Serum, remaining activity read out in intestinal cells; format: in vitro ADME; conditions: fold more stable than NT(8-13)
Description: All peptides were incubated at 10^−5 M with Fetal Bovine Serum (FBS; final concentration of 66.7%) (Sigma Aldrich, Denmark) at 37° C. for 3 hours. The peptide degradation was terminated using 1 M phosphoric acid (final 0.4 M, pH ˜1.2) and neutralized to pH 7.2-7.4 with NaOH before testing activity in intestinal cells. As for small intestine homogenates, a zero degradation control was included for each peptide.
DC7-2, NT, DKPYIL (SEQ ID NO: 8) and NT-(8-13) (final concentration of 10^-6 M) were incubated either with FBS or with 270× diluted intestinal homogenate at 37° C. for various time points with shaking. Degradation was stopped with 1 M phosphoric acid and the samples were subsequently neutralized and immediately tested with intestinal cells as described above. Control for zero degradation was included for each peptide as above. […]
(§1) Notes for Tables 1) Stability in serum is expressed as fraction of peptide activity left after 10 min of incubation in serum at 37° C. compared with undigested sample as described in Examples. 2) Stability in intestine is expressed as % activity left after 30 min incubation in intestine homogenate at 37° C. as described in Examples.

[2] = Stability of peptides in small intestine homogenate, remaining activity read out in intestinal cells; format: in vitro ADME, mice; conditions: fold more stable than NT(8-13)
Description: Small intestines from 20 Swiss-Webster males were homogenized in 350 ml Dulbecco's phosphate-buffered saline (PBS) (pH 7.4) (ThermoFischer Scientific, Denmark) with a IKA® basic 18 Ultra-Turrax tissue homogenizer set a speed 5 followed by filtration using 100 μm nylon mesh filter. Protein concentration was 6 mg/ml using the bicinconinic acid assay (ThermoFischer Scientific, Denmark) and bovine serum albumin as standard. The intestine homogenate was diluted 10 times in HBSS containing 25 mM HEPES (pH 7.4), and further diluted 30×, 90×, 270×, 810× or 2430× before incubation with peptides. All solutions were prewarmed to 37° C. before mixing with peptide solutions.
Peptides were incubated at 10^−5 M with dilutions of small intestine homogenate at 37° C. for 90 minutes with shaking. Reactions were stopped by addition of 1 M phosphoric acid (final 0.4 M, pH ˜1.2). Each peptide incubation mix was then neutralized with NaOH to pH 7.2-7.4 and immediately tested for activity in intestinal cells. […]
as §1

Chain of pepsin (P0DJD8 63-388): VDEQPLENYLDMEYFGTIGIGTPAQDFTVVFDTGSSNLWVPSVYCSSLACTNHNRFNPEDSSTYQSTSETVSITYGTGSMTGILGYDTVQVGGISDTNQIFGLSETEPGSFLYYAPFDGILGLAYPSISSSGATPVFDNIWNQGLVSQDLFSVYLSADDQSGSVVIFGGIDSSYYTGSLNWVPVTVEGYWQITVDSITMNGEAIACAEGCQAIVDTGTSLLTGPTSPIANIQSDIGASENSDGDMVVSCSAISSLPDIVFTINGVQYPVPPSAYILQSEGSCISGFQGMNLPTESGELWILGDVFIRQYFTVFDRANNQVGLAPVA

| Resistance to pepsin degradation (pepsin) | Stability in serum relative to neurotensin (8-13) RRPYIL [1] | Stability in intestine homogenate relative to neurotensin (8-13) RRPYIL [2] | Substance |
| --- | --- | --- | --- |
| resistant to pepsin degradation | – | – | ASDKPYIL [Peptide 36036, A SDKPYIL] |
| – | around 100 times | 100-1000 × | DKPYIL [Peptide 35978, D KPYIL] |
